From ChEMBL document CHEMBL5512675, “Design of Selective PARP-1 Inhibitors and Antitumor Studies” (J Med Chem, 2024)
Blank lines part the entries; values can stand above or below the compound they belong to.

Tests used:
[1] = target: Poly [ADP-ribose] polymerase 1 (Homo sapiens, UniProt P09874); assay: Inhibition of GST-tagged human PARP1 incubated for 30 mins by chemiluminescence based UV/visible spectrophotometric analysis
[2] = target: Poly [ADP-ribose] polymerase 2 (Homo sapiens, UniProt Q9UGN5); assay: Inhibition of GST-tagged human PARP2 incubated for 30 mins by chemiluminescence based UV/visible spectrophotometric analysis
SK-OV-3 [3] = assay: animal or person; settings: Mus musculus, SK-OV-3, po, 744 h, read-out: TGI
Description: Antitumor activity against human SK-OV-3 cells xenografted in female BALB/c nude mouse assessed as tumor growth inhibition at 50 mg/kg, po administered via gavage once daily for 31 days relative to control

[4] = Inhibition of PARP1 Ala755Gln, Gln759Ser and Val762Ile mutant (unknown origin) incubated for 1 hrs in presence of NAD and DNA by ELISA
HCC1937 = assay: cells; settings: Homo sapiens, HCC1937, 72 h
Description: Antiproliferative activity against human HCC1937 cells harboring BRCA2 mutant assessed as inhibition of cell proliferation incubated for 72 hrs

CAPAN-1 = assay: cells; settings: Homo sapiens, CAPAN-1, 72 h
Description: Antiproliferative activity against human CAPAN-1 cells harboring BRCA1 mutant assessed as inhibition of cell proliferation incubated for 72 hrs

SiHa = assay: cells; settings: Homo sapiens, 72 h
Description: Antiproliferative activity against human SiHa cells assessed as inhibition of cell proliferation incubated for 72 hrs

C-33-A = assay: cells; settings: Homo sapiens, 72 h
Description: Antiproliferative activity against human C-33-A cells assessed as inhibition of cell proliferation incubated for 72 hrs

SK-OV-3 [5] = assay: cells; settings: Homo sapiens, SK-OV-3, 72 h
Description: Antiproliferative activity against human SK-OV-3 cells assessed as inhibition of cell proliferation incubated for 72 hrs

HCT-116 = assay: cells; settings: Homo sapiens, HCT-116, 72 h
Description: Antiproliferative activity against human HCT-116 cells assessed as inhibition of cell proliferation incubated for 72 hrs

A549 = assay: cells; settings: Homo sapiens, A549, 72 h
Description: Antiproliferative activity against human A549 cells assessed as inhibition of cell proliferation incubated for 72 hrs

in vitro [6] = settings: human, H8 cells
Description: Cytotoxicity against human H8 cells assessed as inhibition of cell proliferation incubated for 72 hrs

in vitro [7] = settings: human, NCM460 cells
Description: Cytotoxicity against human NCM460 cells assessed as inhibition of cell proliferation incubated for 72 hrs

[8] = target: Poly [ADP-ribose] polymerase 1 (Mus musculus, UniProt P11103); assay: Inhibition of recombinant mouse PARP-1 incubated for 16 hrs in presence of NAD+ by liquid scintillation spectrometry based scintillation proximity assay
Sequence of Poly [ADP-ribose] polymerase 1 (Mus musculus, UniProt P11103) (P11103 whole entry): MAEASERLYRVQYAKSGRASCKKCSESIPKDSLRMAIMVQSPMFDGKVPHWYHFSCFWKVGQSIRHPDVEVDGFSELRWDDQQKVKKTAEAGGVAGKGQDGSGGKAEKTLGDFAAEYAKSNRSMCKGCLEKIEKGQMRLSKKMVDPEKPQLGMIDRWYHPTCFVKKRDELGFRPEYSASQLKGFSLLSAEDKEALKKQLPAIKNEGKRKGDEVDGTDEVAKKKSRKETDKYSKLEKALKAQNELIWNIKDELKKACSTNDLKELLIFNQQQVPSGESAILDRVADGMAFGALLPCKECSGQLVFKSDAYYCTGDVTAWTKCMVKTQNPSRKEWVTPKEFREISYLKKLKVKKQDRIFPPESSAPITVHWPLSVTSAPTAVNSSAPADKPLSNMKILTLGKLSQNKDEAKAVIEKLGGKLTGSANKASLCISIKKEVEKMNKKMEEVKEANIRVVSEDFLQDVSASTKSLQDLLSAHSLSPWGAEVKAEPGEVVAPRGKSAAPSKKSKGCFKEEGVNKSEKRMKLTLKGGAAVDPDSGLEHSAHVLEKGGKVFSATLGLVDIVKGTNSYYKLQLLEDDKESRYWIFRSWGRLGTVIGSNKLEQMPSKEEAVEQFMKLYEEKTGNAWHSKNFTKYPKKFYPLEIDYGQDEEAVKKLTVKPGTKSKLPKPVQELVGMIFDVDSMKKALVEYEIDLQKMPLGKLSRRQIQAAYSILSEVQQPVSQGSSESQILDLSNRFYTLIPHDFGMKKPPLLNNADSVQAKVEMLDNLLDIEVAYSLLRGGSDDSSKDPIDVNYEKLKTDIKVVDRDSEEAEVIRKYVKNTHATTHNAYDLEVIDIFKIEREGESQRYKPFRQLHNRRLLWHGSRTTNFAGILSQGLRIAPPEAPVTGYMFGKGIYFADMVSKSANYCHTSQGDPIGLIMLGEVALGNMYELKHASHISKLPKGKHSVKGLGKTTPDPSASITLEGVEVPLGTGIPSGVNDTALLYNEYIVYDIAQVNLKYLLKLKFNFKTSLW

Sequence of Poly [ADP-ribose] polymerase 2 (Q9UGN5 whole entry): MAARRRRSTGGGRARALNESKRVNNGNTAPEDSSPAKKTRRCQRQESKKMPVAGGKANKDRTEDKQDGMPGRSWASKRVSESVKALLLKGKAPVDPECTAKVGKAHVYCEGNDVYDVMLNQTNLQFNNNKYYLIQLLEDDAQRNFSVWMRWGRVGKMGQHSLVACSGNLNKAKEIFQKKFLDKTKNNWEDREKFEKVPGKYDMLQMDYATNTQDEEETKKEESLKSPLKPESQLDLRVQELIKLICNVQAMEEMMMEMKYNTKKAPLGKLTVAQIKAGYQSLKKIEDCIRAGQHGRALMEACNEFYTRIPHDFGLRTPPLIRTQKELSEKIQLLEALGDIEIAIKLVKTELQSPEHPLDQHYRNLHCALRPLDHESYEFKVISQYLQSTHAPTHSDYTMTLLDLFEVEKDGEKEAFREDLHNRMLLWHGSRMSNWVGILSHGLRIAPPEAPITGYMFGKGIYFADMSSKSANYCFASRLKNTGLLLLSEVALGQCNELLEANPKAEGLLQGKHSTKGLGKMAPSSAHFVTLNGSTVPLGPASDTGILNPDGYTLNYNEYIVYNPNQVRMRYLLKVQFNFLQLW
Sequence of Poly [ADP-ribose] polymerase 1 (Homo sapiens, UniProt P09874) (P09874 whole entry): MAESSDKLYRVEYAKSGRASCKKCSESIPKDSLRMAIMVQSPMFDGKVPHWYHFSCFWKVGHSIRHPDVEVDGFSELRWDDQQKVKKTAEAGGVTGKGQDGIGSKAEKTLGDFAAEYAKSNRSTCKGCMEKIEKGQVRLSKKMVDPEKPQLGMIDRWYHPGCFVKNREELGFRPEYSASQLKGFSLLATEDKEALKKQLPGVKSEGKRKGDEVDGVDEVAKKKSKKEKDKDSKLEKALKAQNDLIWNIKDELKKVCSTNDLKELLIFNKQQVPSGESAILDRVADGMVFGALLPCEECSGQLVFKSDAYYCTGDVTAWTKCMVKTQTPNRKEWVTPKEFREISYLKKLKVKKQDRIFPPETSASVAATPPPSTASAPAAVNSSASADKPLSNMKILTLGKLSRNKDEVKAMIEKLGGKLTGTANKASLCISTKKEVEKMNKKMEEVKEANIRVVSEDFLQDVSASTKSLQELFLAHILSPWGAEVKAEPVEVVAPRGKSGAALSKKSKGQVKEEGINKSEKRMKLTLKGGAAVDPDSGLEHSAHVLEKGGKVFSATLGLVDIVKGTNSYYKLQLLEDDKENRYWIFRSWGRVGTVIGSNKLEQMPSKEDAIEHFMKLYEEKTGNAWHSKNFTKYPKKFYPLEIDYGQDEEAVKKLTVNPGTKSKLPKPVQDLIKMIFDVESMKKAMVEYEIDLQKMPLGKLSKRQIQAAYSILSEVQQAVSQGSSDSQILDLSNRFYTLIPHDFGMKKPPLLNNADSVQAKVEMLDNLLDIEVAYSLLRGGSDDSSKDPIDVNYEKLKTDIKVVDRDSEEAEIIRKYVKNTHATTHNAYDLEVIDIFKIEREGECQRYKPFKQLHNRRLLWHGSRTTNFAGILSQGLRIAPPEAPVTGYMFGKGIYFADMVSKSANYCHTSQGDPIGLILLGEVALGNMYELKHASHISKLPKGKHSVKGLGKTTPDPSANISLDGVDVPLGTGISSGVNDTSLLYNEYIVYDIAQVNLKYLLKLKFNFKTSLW

IC50 [1]: 33.7 nM | IC50 [2]: 1780 nM
Structure (SMILES): COc1cc(-c2nc3c(C(N)=O)cccc3[nH]2)cc(Br)c1OS(=O)(=O)c1c(C)cc(C)cc1C

IC50 [1]: 33.2 nM | IC50 [2]: 2070 nM
Structure (SMILES): COc1cc(-c2nc3c(C(N)=O)cccc3[nH]2)cc(Br)c1OC(=O)C(C)(C)C

The remaining lines, values behind:

Structure (SMILES): CCCS(=O)(=O)Oc1c(Br)cc(-c2nc3c(C(N)=O)cccc3[nH]2)cc1OC
IC50 [1]: 50.5 nM | IC50 [2]: 760 nM

Structure (SMILES): COc1cc(/C=N/NC(N)=S)c(Br)c(Br)c1OC
IC50 [1]: 42.9 nM | IC50 [2]: 1560 nM | inhibition in vivo at 50 mg/kg (SK-OV-3 [3]): 57.4%

Structure (SMILES): O=C(c1cc(Cc2n[nH]c(=O)c3ccccc23)ccc1F)N1CCN(C(=O)C2CC2)CC1 [OLAPARIB]
IC50 [4]: 10.4 nM | IC50 (HCC1937): 22000 nM | IC50 (CAPAN-1): 60700 nM | IC50 (SiHa): > 200000 nM | IC50 (C-33-A): > 200000 nM | IC50 (SK-OV-3 [5]): 167000 nM | IC50 (HCT-116): > 200000 nM | IC50 (A549): > 200000 nM | IC50 at 72 h (in vitro [6]): > 200000 nM | IC50 at 72 h (in vitro [7]): > 200000 nM

Structure (SMILES): Cn1cccc1/C=C1\C(=O)NC(=O)c2ccccc21
IC50 [8]: 4790 nM
